Measured values as given in PubChem BioAssay (NCI).
“And” between values parts separate entries of the source, which are not always exact repeats. Identical values can stand only once.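 Interpolation was linear, between the two tested concentrations surrounding the appropriate level; five concentrations were tested over 48 hours in 96-well plates. GI50 marks 50% less growth. Definition used: TGI = concentration required for complete inhibition of growth.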

Legend:
Assay in all cases: inhibition of tumour cell growth, NCI panel, 48 h
DLD-1 colon = test system: DLD-1 colon
KM20L2 colon = test system: KM20L2 colon
LXFL 529 NSCLC = test system: LXFL 529 NSCLC
M19-MEL melanoma = test system: M19-MEL melanoma
SNB-78 CNS = test system: SNB-78 CNS
DU-145 prostate = test system: DU-145 prostate
MCF7 breast = test system: MCF7 breast
MDA-MB-231 breast = test system: MDA-MB-231 breast
NCI/ADR-RES ovarian = test system: NCI/ADR-RES ovarian
T-47D breast = test system: T-47D breast

COc1ccc(/C=C\c2cc(OC)c(O[Si](C)(C)C(C)(C)C)c(OC)c2)cc1
TGI (DLD-1 colon): > 100 µM
TGI (KM20L2 colon): > 100 µM
TGI (LXFL 529 NSCLC): > 100 µM
TGI (M19-MEL melanoma): > 100 µM

Cc1ccccc1C1=C(C(=O)Nc2ccc(Cl)c(Cl)c2)NC(=S)NC1N (configuration not stated)
TGI (DLD-1 colon): > 100 µM
TGI (KM20L2 colon): > 100 µM
TGI (LXFL 529 NSCLC): > 100 µM
TGI (M19-MEL melanoma): > 100 µM
TGI (SNB-78 CNS): > 100 µM

O=C(N/N=C(/CCN1CCCC1)CC(c1ccccc1)c1c(O)c2ccccc2oc1=O)c1ccncc1 (configuration not stated)
TGI (DLD-1 colon): > 100 µM
TGI (KM20L2 colon): > 100 µM
TGI (LXFL 529 NSCLC): > 100 µM
TGI (M19-MEL melanoma): > 100 µM
TGI (SNB-78 CNS): > 100 µM

NCCCCNc1ccc2c(=O)[nH][nH]c(=O)c2c1
TGI (DLD-1 colon): > 100 µM
TGI (KM20L2 colon): > 100 µM
TGI (LXFL 529 NSCLC): > 100 µM
TGI (M19-MEL melanoma): > 100 µM
TGI (SNB-78 CNS): > 100 µM

Cc1ccc(-c2cc(-c3ccccc3)c(C#N)c(=O)n2C2OC(CO)C(O)C(O)C2O)cc1 (configuration not stated)
TGI (DLD-1 colon): > 100 µM
TGI (KM20L2 colon): > 100 µM
TGI (LXFL 529 NSCLC): > 100 µM
TGI (M19-MEL melanoma): > 100 µM
TGI (SNB-78 CNS): > 100 µM

Cc1cccc(C)c1NC(=O)C1C(=O)N(c2c(C)cccc2C)C(=O)/C1=N\NC(N)=S (configuration not stated)
TGI (DLD-1 colon): > 100 µM
TGI (KM20L2 colon): > 100 µM
TGI (LXFL 529 NSCLC): > 100 µM
TGI (M19-MEL melanoma): > 100 µM
TGI (SNB-78 CNS): > 100 µM

COC(=O)C(=O)C(C(=O)C(=O)Nc1cccc(C(C)=O)c1)c1nc2ccccc2[nH]c1=O (configuration not stated)
TGI (DLD-1 colon): > 100 µM
TGI (KM20L2 colon): > 100 µM
TGI (LXFL 529 NSCLC): > 100 µM
TGI (M19-MEL melanoma): > 100 µM

CC(=O)NC(CCCCNC(=O)NCCCl)C(=O)NCc1ccccc1 (configuration not stated)
TGI (DLD-1 colon): > 100 µM
TGI (KM20L2 colon): > 100 µM
TGI (LXFL 529 NSCLC): > 100 µM
TGI (M19-MEL melanoma): > 100 µM

C/C(CCc1ccccc1)=N\NC(N)=S
TGI (DLD-1 colon): > 100 µM
TGI (KM20L2 colon): > 100 µM
TGI (LXFL 529 NSCLC): > 100 µM
TGI (M19-MEL melanoma): > 100 µM
TGI (SNB-78 CNS): > 100 µM

N#CCCN(CCC#N)c1ccc(C(Sc2ccccc2)C(NC(=O)c2cc([N+](=O)[O-])ccc2Cl)C(=O)Sc2ccccc2)cc1 (configuration not stated)
GI50 (DLD-1 colon): 1.8 µM
TGI (DLD-1 colon): 9.43 µM and 4.58 µM
TGI (KM20L2 colon): 6.47 µM and 11.3 µM
GI50 (LXFL 529 NSCLC): 1.63 µM
TGI (LXFL 529 NSCLC): 11.9 µM
GI50 (M19-MEL melanoma): 2.95 µM
TGI (M19-MEL melanoma): 11.9 µM
GI50 (SNB-78 CNS): 2.97 µM
TGI (SNB-78 CNS): 34.5 µM

COC(=O)[C@]12CCC(C)[C@H](C)[C@H]1C1=CCC3[C@@]4(C)CC[C@H](OC(C)=O)C(C)(C)C4CC[C@@]3(C)C1(C)C(O)C2 (some centres not stated)
TGI (DLD-1 colon): > 100 µM
TGI (KM20L2 colon): > 100 µM
TGI (LXFL 529 NSCLC): > 100 µM
TGI (M19-MEL melanoma): > 100 µM
TGI (SNB-78 CNS): > 100 µM

CC[C@]1(O)C(=O)OCc2c1cc1n(c2=O)Cc2cc3c(N)cccc3nc2-1
TGI (DLD-1 colon): > 100 µM
TGI (KM20L2 colon): > 100 µM
TGI (LXFL 529 NSCLC): > 100 µM
TGI (M19-MEL melanoma): > 100 µM

Cc1cccc(-n2c(=S)[nH]c3c(sc(=O)n3-c3ccccc3C)c2=O)c1
TGI (DLD-1 colon): > 100 µM
TGI (KM20L2 colon): > 100 µM
TGI (LXFL 529 NSCLC): > 100 µM
TGI (M19-MEL melanoma): > 100 µM
TGI (SNB-78 CNS): > 100 µM

Cc1cc(C)c(C(=O)c2no[n+]([O-])c2C(=O)c2c(C)cc(C)c(Br)c2C)c(C)c1Br
TGI (DLD-1 colon): 30.7 µM
TGI (KM20L2 colon): 32.9 µM
TGI (LXFL 529 NSCLC): 23.7 µM
TGI (M19-MEL melanoma): 25.7 µM
TGI (SNB-78 CNS): 70.8 µM

CCOC(=O)c1cc(/C=C/C(C)=C/C(=O)OC)oc1C
TGI (DLD-1 colon): > 100 µM
TGI (KM20L2 colon): > 100 µM
TGI (LXFL 529 NSCLC): > 100 µM
TGI (M19-MEL melanoma): > 100 µM
TGI (SNB-78 CNS): > 100 µM

O=C(c1ccncc1)n1nc(-c2ccccc2)c(N=Nc2ccccc2[N+](=O)[O-])c1-c1ccccc1
TGI (DLD-1 colon): > 100 µM
TGI (LXFL 529 NSCLC): > 100 µM
TGI (M19-MEL melanoma): > 100 µM
TGI (SNB-78 CNS): > 100 µM

NC(=S)NNc1c([N+](=O)[O-])cnn(-c2ccccc2)c1=O
TGI (DLD-1 colon): 28.5 µM
TGI (KM20L2 colon): 29.8 µM
TGI (LXFL 529 NSCLC): 21.1 µM
TGI (M19-MEL melanoma): 26.5 µM
TGI (SNB-78 CNS): 48.3 µM

CC[O-].CC[O-].O=S(=O)([O-])c1ccc([O-])c2ncccc12.O=S(=O)([O-])c1ccc([O-])c2ncccc12.[Ti+4]
GI50 (DLD-1 colon): 91.1 µM
TGI (DLD-1 colon): > 100 µM
GI50 (KM20L2 colon): 39.7 µM
TGI (KM20L2 colon): > 100 µM
GI50 (LXFL 529 NSCLC): 39.6 µM
TGI (LXFL 529 NSCLC): > 100 µM
GI50 (M19-MEL melanoma): > 100 µM
TGI (M19-MEL melanoma): > 100 µM
GI50 (SNB-78 CNS): > 100 µM
TGI (SNB-78 CNS): > 100 µM

C/C=C1\NC(=O)[C@H]2CSSCCC=C[C@H](CC(=O)N[C@H](C(C)C)C(=O)N2)OC(=O)[C@H](C(C)C)NC1=O
GI50 (DLD-1 colon): 0.0102 µM
TGI (DLD-1 colon): 0.289 µM
GI50 (DU-145 prostate): < 0.01 µM
TGI (DU-145 prostate): 0.226 µM and 0.0645 µM and 0.199 µM
TGI (KM20L2 colon): 0.00796 µM
TGI (M19-MEL melanoma): 0.0564 µM and 0.065 µM
GI50 (MCF7 breast): < 0.01 µM
TGI (MCF7 breast): 0.0148 µM and 0.00981 µM and 0.0352 µM
GI50 (MDA-MB-231 breast): < 0.01 µM
GI50 (NCI/ADR-RES ovarian): 1.98 µM and 0.676 µM
TGI (NCI/ADR-RES ovarian): 27.7 µM and 11.2 µM
GI50 (SNB-78 CNS): 0.0123 µM
GI50 (T-47D breast): < 0.01 µM
TGI (T-47D breast): < 0.01 µM and 0.0103 µM

C/C=C/C=C/C=C/C=C/C(=O)O
TGI (DLD-1 colon): > 100 µM
TGI (KM20L2 colon): > 100 µM
TGI (LXFL 529 NSCLC): > 100 µM
TGI (SNB-78 CNS): > 100 µM

C[C@]12CCCC(=O)C1(O)C[C@H](C(=O)O)CC2 (some centres not stated)
TGI (DLD-1 colon): > 100 µM
TGI (KM20L2 colon): > 100 µM
TGI (LXFL 529 NSCLC): > 100 µM
TGI (M19-MEL melanoma): > 100 µM

COC1OC(CO)C(O)C1N (configuration not stated)
TGI (DLD-1 colon): > 100 µM
TGI (KM20L2 colon): > 100 µM
TGI (LXFL 529 NSCLC): > 100 µM
TGI (SNB-78 CNS): > 100 µM

COC(=O)c1ccccc1NC(=O)C(=O)NNC(=O)c1ccncc1
TGI (DLD-1 colon): > 100 µM
TGI (KM20L2 colon): > 100 µM
TGI (LXFL 529 NSCLC): > 100 µM
TGI (M19-MEL melanoma): > 100 µM

N.N.N.N.O=C([O-])C(Cl)Cl.O=C([O-])C(Cl)Cl.[Co+3].[O-][Cl+3]([O-])([O-])[O-]
GI50 (DLD-1 colon): > 100 µM
TGI (DLD-1 colon): > 100 µM
GI50 (KM20L2 colon): > 100 µM
TGI (KM20L2 colon): > 100 µM
GI50 (LXFL 529 NSCLC): > 100 µM
TGI (LXFL 529 NSCLC): > 100 µM
GI50 (SNB-78 CNS): > 100 µM
TGI (SNB-78 CNS): > 100 µM
